{"source": "patent US11559527B2", "about": "(priority 2017, dated 2023)", "key": {"MCF7 cells [1]": {"tested_on": "MCF7 cells", "test": "Mitochondrial superoxide (MitoSOX, flow cytometry)", "format": "cell-based, Human", "conditions": "both concentrations of mDIVI-1, compared to vehicle", "from_the_text": "Inhibition of the mitochondrial fission impacts on other mitochondrial processes, such as mitochondrial metabolism and general and mitochondrial oxidative stress. To confirm, MCF7 cells were stained with MitoSOX and CM-H2DCFDA, and mitochondrial superoxide and total ROS were quantified by flow cytometry. […] Whereas the increase in general ROS goes in line with the increase in mitochondrial content, the boost in the levels of mitochondrial superoxide in mDIV1-treated cells is actually bigger than the observed increased mitochondrial content.\nLEVELS OF REACTIVE OXYGEN SPECIES AND MITOCHONDRIAL SUPEROXIDE: For both assays, 2×10^5 MCF7 cells were seeded in 35 mm plates. […] Reactive oxygen species (ROS) production was measured using CM-H2DCFDA (C6827, Invitrogen). Briefly, cells were incubated for 20 minutes at 37° C. with 1 μM CM-H2DCFDA diluted in PBS and then placed in complete media for 20 minutes at 37° C. in the dark, to render the dye fluorescent, according to the manufacturer. Mitochondrial superoxide was measured using MitoSOX Red Mitochondrial Superoxide Indicator (M36008, ThermoFisher Scientific). […] ROS signal and MitoSOX signal was quantified as mean fluorescent intensity of the viable cell population in a Fortessa flow cytometer (BD Bioscience). Results were analysed using FlowJo software."}, "Notch signaling": {"tested_on": "Notch signaling", "test": "Luciferase reporter assay MCF7-GFP-Rbp/Jk(luc)", "format": "cell-based, Human", "conditions": "50 μM, 2 and 5 days", "from_the_text": "(§1) Mitochondrial fusion and fission may also have an impact in signaling pathways that regulate stem cell proliferation and survival. […] A range of reporter MCF7-GFP cell lines were generated, including MCF7-GFP-GLI(luc), MCF7-GFP-Rbp/Jk(luc), MCF7-GFP-SMAD(luc) and MCF7-GFP-TCF/LEF(luc), to assess Hedgehog signaling, Notch signaling, TGFβ signaling, and Wnt signaling, respectively. […] The data is shown in the four data plots in FIG. 9.\n(§2) LUCIFERASE ASSAY: The Cignal Lenti reporter assay (luc) was used to monitor the activity of several signalling pathways in MCF7-GFP cells as explained previously. Luciferase Assay System (E1501, Promega) was performed according to manufacturer's instructions. 1×10^4 MCF7 […] were seeded in black-walled 96 well plates. When cells were attached, drug treatments were added for 18, 48 hours and 5 days. After treatment, Luciferase Assay was performed according to manufacturer's instructions and light signal was acquired in the Xenogen VivoVision IVIS Lumina. Results were normalized by SRB staining of cells grown in 96-well plates in parallel.\n(§3) SULFORHODAMINE B (SRB) ASSAY: SRB (S9012, Sigma) measures total biomass by staining cellular proteins. […] Absorbance was spectrophotometrically measured at 562 nm in a FluoStar Omega plate reader (BMG Labtech). […]"}, "MCF7 cells [2]": {"tested_on": "MCF7 cells", "test": "Bradford assay (protein content as indicator of cell viability)", "format": "cell-based, Human", "conditions": "2 days", "procedure": "The inventors sought to evaluate whether mDIVI-1-induced inhibition of DRP1 has repercussion on the viability of MCF7 cells. […] Similar results were obtained using the Bradford assay, which measures protein content, as an indicator of cell viability.\nEXTRACELLULAR FLUX […] AND BRADFORD ASSAY: Extracellular acidification rate (ECAR) and oxygen consumption rate (OCR) were measured in a XF96 Extracellular Flux Analyzer (Seahorse Biosciences). Briefly, 1×10^4 MCF7 cells per well were seeded in XF96 plates and incubated with complete medium. When cells were attached, mDIVI-1 and vehicle treatments were added. Six replicates were run for each condition. After 48 hours, un-buffered DMEM XF medium supplemented with 2 mM glutamine (pH 7.4) was added to the cells, and placed in a 37° C. CO2-free incubator for 1 hour. Ten mM glucose, 1 μM oligomycin and 100 mM 2-deoxyglucose (2-DG) were injected into the media at different time points and ECAR was measured. Likewise, ECAR and OCR were quantified using un-buffered DMEM XF medium supplemented with 2 mM glutamine, 2 mM sodium pyruvate and 10 mM glucose. One μM oligomycin, 0.9 μM FCCP and 1 μM rotenone and antimycin A were injected into the media at different time points and OCR and ECAR were measured. […] All parameters were calculated according to manufacturer."}, "MCF7 cells [3]": {"tested_on": "MCF7 cells", "test": "Extracellular flux analysis (ECAR and OCR, XF96)", "format": "cell-based, Human", "procedure": "Inhibition of mitochondrial fission by m-DIVI-1 or a derivative thereof also blocks the normal functioning of mitochondrial metabolism in CSCs. Indeed, it has been shown that a DRP1 mutant that inhibits mitochondrial fission increases glucose uptake and lactate production, and decreases ATP production. […] The extracellular acidification rate (ECAR) and the oxygen consumption rate (OCR) were measured using an XF96 Extracellular Flux Analyser, and FIGS. 5A, 5B, and 6A-6C show the data. Basal glycolysis, glycolytic capacity and glycolytic reserve were calculated after addition of glucose, oligomycin and 2-deoxyglucose (2DG) into the media. […] Thus, to measure basal respiration, ATP production, maximal respiration and spare respiratory capacity, oxygen consumption was also calculated after addition of oligomycin, FCCP and antimycin/rotenone into glucose-containing media. […] The OCR versus ECAR graph was also plotted to have an indication of the metabolic state of the cell. […] Thus, mDIVI-1-induced inhibition of mitochondrial fission functionally targets oxidative phosphorylation and also the glycolytic function of MCF7 cells, transforming them into cells with lower mitochondrial energetic needs.\nEXTRACELLULAR FLUX […] AND BRADFORD ASSAY: Extracellular acidification rate (ECAR) and oxygen consumption rate (OCR) were measured in a XF96 Extracellular Flux Analyzer (Seahorse Biosciences). Briefly, 1×10^4 MCF7 cells per well were seeded in XF96 plates and incubated with complete medium. When cells were attached, mDIVI-1 and vehicle treatments were added. Six replicates were run for each condition. After 48 hours, un-buffered DMEM XF medium supplemented with 2 mM glutamine (pH 7.4) was added to the cells, and placed in a 37° C. CO2-free incubator for 1 hour. Ten mM glucose, 1 μM oligomycin and 100 mM 2-deoxyglucose (2-DG) were injected into the media at different time points and ECAR was measured. Likewise, ECAR and OCR were quantified using un-buffered DMEM XF medium supplemented with 2 mM glutamine, 2 mM sodium pyruvate and 10 mM glucose. One μM oligomycin, 0.9 μM FCCP and 1 μM rotenone and antimycin A were injected into the media at different time points and OCR and ECAR were measured. Cells were finally lysed with 0.1 M NaOH and protein lysate was subsequently stained with Quick Start™ Bradford 1× Dye Reagent (500-0205, BioRad) to normalise results. All parameters were calculated according to manufacturer."}, "Wnt signaling": {"tested_on": "Wnt signaling", "test": "Luciferase reporter assay MCF7-GFP-TCF/LEF(luc)", "format": "cell-based, Human", "conditions": "50 μM, 2 and 5 days", "from_the_text": "as §1, §2, §3"}, "A375 melanoma cells": {"tested_on": "A375 melanoma cells", "test": "Tumorsphere formation assay, A375", "format": "cell-based", "procedure": "One of the gold standard techniques for the study and identification of CSCs is the sphere formation assay, an in vitro culture system that enriches for CSCs. Under these anchorage-independent culture conditions, CSCs preferentially form the so-called tumorspheres, whereas more differentiated cells die rapidly.\nTUMORSPHERE FORMATION ASSAY: A single cell suspension was prepared using enzymatic (1× Trypsin-EDTA, T3924, Sigma Aldrich), and manual disaggregation (25 gauge needle). […] After 5 days of culture in a humidified incubator at 37° C., tumorspheres bigger than 50 μm were counted using an eye piece graticule."}}, "data": [{"compound": "COc1cc(-n2c(S)nc3ccccc3c2=O)c(Cl)cc1Cl", "note": "[mDIVI-1, 3-(2,4-Dichloro-5-methoxyphenyl)-2-sulfanyl-4(3H)-quinazolinone]", "values": [{"measurement": "mitochondrial superoxide production (MitoSOX)", "setting": "MCF7 cells [1]", "result": "significantly increased"}, {"measurement": "Notch/Rbp pathway luciferase activity", "setting": "Notch signaling", "result": "inhibition"}, {"measurement": "MCF7 protein content", "setting": "MCF7 cells [2]; 20 μM", "result": "significantly reduced"}, {"measurement": "MCF7 protein content", "setting": "MCF7 cells [2]; 50 μM", "result": "significantly reduced"}, {"measurement": "basal glycolysis (ECAR)", "setting": "MCF7 cells [3]; 48 hours", "result": "did not have a significant effect"}, {"measurement": "glycolytic capacity (ECAR)", "setting": "MCF7 cells [3]; 48 hours", "result": "reduced"}, {"measurement": "glycolytic reserve (ECAR)", "setting": "MCF7 cells [3]; 48 hours", "result": "reduced"}, {"measurement": "oxygen consumption linked to ATP production", "setting": "MCF7 cells [3]; 48 hours", "result": "significantly reduced"}, {"measurement": "oxygen consumption linked to basal respiration", "setting": "MCF7 cells [3]; 48 hours", "result": "significantly reduced"}, {"measurement": "spare respiratory capacity", "setting": "MCF7 cells [3]; 48 hours, all mDIVI-1 concentrations", "result": "slightly increased"}, {"measurement": "oxygen consumption linked to maximal respiration", "setting": "MCF7 cells [3]; 48 hours, to a lesser extent, at higher concentrations", "result": "significantly reduced"}, {"measurement": "OCR/ECAR ratio", "setting": "MCF7 cells [3]; compared to vehicle", "result": "decreased dose-dependently"}, {"measurement": "Wnt/TCF pathway luciferase activity", "setting": "Wnt signaling", "result": "inhibition"}, {"measurement": "decrease of tumorsphere forming capacity", "setting": "A375 melanoma cells; A375, 10 μM", "result": "over 35%"}, {"measurement": "decrease of tumorsphere forming capacity", "setting": "A375 melanoma cells; A375, 50 μM", "result": "over 90%"}]}]}
